Source: article PMC12444563 (ACS Omega, 2025)

Biological target: T1, bovine spleen Cathepsin B (Bos taurus, UniProt P07688)
T1 construct: bovine spleen Cathepsin B (SigmaAldrich C6286, ≥10 units/mg protein); purchased SigmaAldrich C6286; host or cells: bovine spleen (tissue-derived)
Assay: Preliminary Cathepsin B cleavage assay for protocol validation, HPLC vs UHPLC-HRMS
Type: biochemical
Details: for % residual compound, HRMS: UHPLC-HRMS (Orbitrap) detection; for % residual compound, HPLC: analytical HPLC detection
Protocol: The Cathepsin B cleavage assay was performed by incubating compounds 1–4 at 37 °C under gently shaking conditions in the presence of the active form of Cathepsin B. More specifically, 122.4 μL of an enzyme-activating solution (composed of 7.48 mg of L-cysteine dissolved in 2 mL of a buffer solution containing 20 mM NaOAc, 1 mM EDTA, pH 5.4 to give a final cysteine concentration of 30.88 mM) was mixed with 12.6 μL of enzyme stock solution, previously prepared by solubilization of bovine spleen Cathepsin B (SigmaAldrich C6286, ≥10 units/mg protein) in 1 mL of buffer solution (without cysteine) to give a concentration of enzyme stock solution of 12 units/mL. After the dilution, the final concentration of Cathepsin B was 1.12 u/mL. Then, the diluted enzyme solution was incubated at 37 °C for 15 min to activate Cathepsin B. After 15 min, 6 μL of 117 μM compound solution, previously prepared by diluting 5.85 μL of 1 mM stock solution of the compound in 44.15 μL of dry DMSO (giving a 117 μM solution), was added to the test tube and the cleavage assay solution was incubated at 37 °C under gentle shaking conditions. Sample aliquots (10 μL) were taken out at 15, 30 min, and 1, 2, 4, and 24 h and quenched with 10 μL of MeOH+1% formic acid. The solutions were then centrifuged for 10 min at 6000 rpm. Blank solutions were prepared for each compound by dilution of 6 μL of a 117 μM compound solution into 135 μL of an enzyme-activating solution. UHPLC-MS analyses were carried out using a Vanquish UHPLC System (Thermo Fisher Scientific) and Orbitrap Exploris 120 (Thermo Fisher Scientific). Thermo Scientific Xcalibur software was used to control the instruments and acquire the data. Freestyle 1.8 software was used for processing the data. UHPLC chromatographic separations were performed on a reversed-phase column Accucore C18 50 × 2.1 mm, 2.6 μm (Thermo Fisher Scientific). A gradient system was used with the mobile phase consisting of solvent A: H2O + 0.05% formic acid and solvent B: acetonitrile. The areas of the peak of compounds 1–4 in the extracted ion chromatogram were used to evaluate the kinetics of the cleavage process. The percentage of residual compound was calculated as the ratio between the areas of the peak of the full compound at the desired time point and in the blank analysis. %Residualcompound=areacompoundatthedesiredtimepoint/areacompoundintheblanksolution×100
Based on the similarity of the Cathepsin B recognized sequence GFLG to GPLG, we inferred that the latter could also be recognized by the same lysosomal enzyme. Therefore, a Cathepsin B cleavage assay for compound 1 was planned, and the experiment was designed to focus on a short incubation time (up to 4 h) to better mimic the fast transient and dynamic environment of drug clearance and activation generally occurring in in vivo conditions. An Orbitrap mass analyzer was chosen to analyze the final incubated solution due to its higher sensitivity compared to traditional HPLC methods, thereby allowing precise evaluation of the drug release kinetics even at low compound concentrations. At first, to validate the designed Orbitrap-protocol over the HPLC protocols generally reported in the literature, we initially performed the cleavage assay on compound 4 containing the VA sequence, for which the recognition by the Cathepsin B enzyme is well documented. ,− For instance, compound 4 was incubated at 37 °C with a sodium acetate buffer solution (final concentration of 4: 5 μM) containing the active form of the Cathepsin B enzyme, and diluted aliquots at 0–30–60–120 and 240 min were collected and analyzed by a UHPLC-Orbitrap instrument and, in parallel, by analytical HPLC. As shown in Figure S26 of the Supporting Information, the degradation of the VA-based compound 4 can be appreciated from both analyses; however, an expected remarkable difference between the two methods was noted regarding the final concentration of the compound 4 at the end of the experiment. […]

CC(=O)O[C@H]1C(=O)[C@@]2(C)[C@H]([C@H](OC(=O)c3ccccc3)[C@]3(O)C[C@H](OC(=O)[C@H](OC(=O)N(C)CCN(C)C(=O)OCc4ccc(NC(=O)[C@H](C)NC(=O)[C@@H](NC(=O)OCC5c6ccccc6-c6ccccc65)C(C)C)cc4)[C@@H](NC(=O)c4ccccc4)c4ccccc4)C(C)=C1C3(C)C)[C@]1(OC(C)=O)CO[C@@H]1C[C@@H]2O [Compound 4, Fmoc-VA-PABC-diamine-PTX]
% residual compound, HRMS (30 min with Cathepsin B): 73.35%
% residual compound, HRMS (60 min with Cathepsin B): 68.45%
% residual compound, HRMS (120 min with Cathepsin B): 65.40%
% residual compound, HRMS (240 min (4 h) with Cathepsin B): 63.70%
% residual compound, HPLC (30 min with Cathepsin B): 25.11%
% residual compound, HPLC (60 min with Cathepsin B): 20.48%
% residual compound, HPLC (120 min with Cathepsin B): 13.68%
